Results published in patent US20240239753A1, “METHOD FOR CRYSTALLIZATION OF AROMATIC AMINO ACIDS, ENABLING SUSTAINABLE CYCLE OF AMMONIA” (CJ CheilJedang Corporation, priority 2021, published 2024).

Test: Analysis of solubility of L-tryptophan depending on pH of solution
Format: physicochemical
Conditions: distilled water/ammonia water mixtures, 30° C., stirring 12 hours or more, supernatant by HPLC; pH of the solution 10 or more (FIG. 2)
Description: Measurement of solubility of L-tryptophan amino acids was performed in a 1 L jacket reactor made of glass. After mixing distilled water and ammonia water in the 1 L jacket reactor at various ratios, an excess of L-tryptophan crystals was added and they were stirred, thereby preparing a reaction solution comprising L-tryptophan crystals. After that, while maintaining the internal temperature of the reactor at 30° C. constantly using freezing/heating circulation apparatus (model F35, Julabo, Germany), these conditions were applied with stirring for 12 hours or more. Then, when the stirring was stopped and all L-tryptophan crystals were sunk, a part of clear supernatant was transferred to a syringe sampler equipped with a 0.45 μm syringe filter. At this time, the pH of the corresponding solution was measured suing a pH measuring instrument (model S220, Mettler Toledo, US). The concentration of the corresponding sample was measured using HPLC, after diluting with tertiary distilled water using a volumetric flask. The concentration of the supernatant sample was assumed with the solubility, and the change in solubility of L-tryptophan depending on pH of solution was shown in FIG. 2. In other words, the pH of the solution could be confirmed that the solubility of L-tryptophan increased from the time when the pH of the solution was to be 10 or more.

Question: For N[C@@H](Cc1c[nH]c2ccccc12)C(=O)O [L-tryptophan], which “change in solubility of L-tryptophan depending on pH of solution” value is on record?
Answer: Its value is “increased”.
